Laboratory results from patent US8664261B2, “Organic compounds having cooling properties” (Givaudan S.A., priority 2009, dated 2014).

How the values were obtained:
[1] = test system: panelists; test: Cooling intensity: panelists taste aqueous solutions, compared with menthol at 2 ppm; type: in vivo; conditions: aqueous solution with cooling intensity similar to or slightly higher than a solution of menthol at 2 ppm; tasted by small group of panelists
[2] = test system: panelists; test: Application in toothpaste: duration of perceived cooling sensation after brushing; type: in vivo; conditions: 0.10 g of 10% ethanol solution of compound + 0.03 g saccharin in 9.96 g opaque toothgel base; teeth brushed, mouth rinsed with water
Method: 0.10 g of a 10% solution in ethanol of a compound of formula (I) listed in Table 4 below and 0.03 g saccharin were mixed in 9.96 g of an opaque toothgel base. A piece of the thus prepared toothpaste was put on a toothbrush and a panelist's teeth were brushed. The mouth was rinsed with water and the water spat out. A long lasting cooling sensation was felt by the panelist in all areas of the mouth. The cooling sensation was perceived for up to 60 min (see Table 5).

Compound	Concentration [1] [ppm]	Perceived cooling sensation [2] [min]
CCNC(=O)C1CC(C)CCC1C(C)C (stereo not drawn) [N-ethyl p-menthanecarboxamide, reference compound]	1.5	–
CC(Cc1cccnc1)NC(=O)[C@@H]1C[C@H](C)CC[C@H]1C(C)C (stereo partly drawn) [Example 1, (1R,2S,5R)-2-isopropyl-5-methyl-N-(1-(pyridin-3-yl)propan-2-yl)cyclohexanecarboxamide]	0.01	30
Cc1[nH]c2ccccc2c1CCNC(=O)[C@@H]1C[C@H](C)CC[C@H]1C(C)C [Example 2I, (1R,2S,5R)-2-isopropyl-5-methyl-N-(2-(2-methyl-1H-indol-3-yl)ethyl)cyclohexane-carboxamide]	–	60
CC(C)[C@@H]1CC[C@@H](C)C[C@H]1C(=O)Nc1ccc(CC#N)cc1 [(1R,2S,5R)-N-(4-(cyanomethyl)phenyl)-2-isopropyl-5-methylcyclohexanecarboxamide, reference compound]	0.2	–
CC(Cc1ccsc1)NC(=O)[C@@H]1C[C@H](C)CC[C@H]1C(C)C (stereo partly drawn) [Example 2M, (1R,2S,5R)-2-isopropyl-5-methyl-N-(1-(thiophen-3-yl)propan-2-yl)cyclohexane-carboxamide]	0.002	40
CC(C)[C@@H]1CC[C@@H](C)C[C@H]1C(=O)NCCc1ccccn1 [(1R,2S,5R)-2-isopropyl-5-methyl-N-(2-(pyridin-2-yl)ethyl)cyclohexanecarboxamide, reference compound]	0.02	–
CC(C)[C@@H]1CC[C@@H](C)C[C@H]1C(=O)NCCn1ccc2ccccc21 [Example 2J, (1R,2S,5R)-N-(2-(1H-indol-1-yl)ethyl)-2-isopropyl-5-methylcyclohexanecarboxamide]	0.002	–
CC(C)[C@@H]1CC[C@@H](C)C[C@H]1C(=O)NCCc1ncc[nH]1 [Example 2H, (1R,2S,5R)-N-(2-(1H-imidazol-2-yl)ethyl)-2-isopropyl-5-methlycyclohexane-carboxamide]	0.2	40
CC1CCC(C(C)C)C(O)C1 (stereo not drawn) [I-Menthol, reference compound]	2.0	–
